According to ChEMBL document CHEMBL1129662, “Investigation of (Oxodioxolenyl)methyl carbamates as nonchiral bioreversible prodrug moieties for chiral amines” (J Med Chem, 1996):

Legend:
[1] = First order rate data for the hydrolysis of compound in 0.05 M phosphate buffer pH 7.4 hydrolysis medium; Half-life in minutes; format: ADME
[2] = First order rate data for the hydrolysis of compound in 0.1 M hydrochloric acid pH 1 hydrolysis medium; Half-life in minutes; format: ADME
[3] = First order rate data for the hydrolysis of compound in rat plasma hydrolysis medium; Half-life in minutes; format: ADME
[4] = First order rate data for the hydrolysis of compound in dog plasma hydrolysis medium; Half-life in minutes; format: ADME, Canis lupus familiaris
[5] = First order rate data for the hydrolysis of compound in 0.1 M hydrochloric acid pH 1 hydrolysis medium (adinotes no detectable hydrolysis after 48 h); Half-life in minutes; format: ADME

Row | half-life [1] [h] | half-life [2] [h] | half-life [3] [h] | half-life [4] [h] | half-life [5] [h] | SMILES
1 | 2.23 | 59.2 | 0.0333 | 0.183 |  | COc1ccc(CCNC(=O)OCc2oc(=O)oc2-c2ccccc2)cc1OC
2 | 4.3 |  | 0.183 |  | > 50 | COc1ccc(CCNC(=O)OCc2oc(=O)oc2C)cc1OC
3 | 3.45 | 53 | 0.0333 | 0.233 |  | COc1ccc(-c2oc(=O)oc2COC(=O)NCCc2ccc(OC)c(OC)c2)cc1
